Laboratory results published in US9849113B2, “Methods of treating α adrenergic mediated conditions” (Allergan, Inc., priority 2008, dated 2017).

Legend:
Chung model rats = experiment: Chung model of chronic pain (spinal nerve ligation), tactile allodynia by von Frey hairs; type: in vivo, rat; details: single oral dose, FIG. 1
Protocol: Various concentrations of N-(2,3-dichlorobenzyl)-4,5-dihydro-1H-imidazol-2-amine were administered orally to Chung model rats. A model in accordance with Kim and Chung 1992, Pain […], pp 355-363 (Chung model), for chronic pain (in particular peripheral neuropathy) involves the surgical ligation of the L5 (and optionally the L6) spinal nerves on one side in experimental animals. Rats recovering from the surgery gain weight and display a level of general activity similar to that of normal rats. However, these rats develop abnormalities of the foot, wherein the hindpaw is moderately everted and the toes are held together. More importantly, the hindpaw on the side affected by the surgery appears to become sensitive to pain from low-threshold mechanical stimuli, such as that producing a faint sensation of touch in a human, within about 1 week following surgery. […]
Tactile allodynia is measured prior to and 30 minutes after drug administration using von Frey hairs that are a series of fine hairs with incremental differences in stiffness. […] The applied force has been calculated to range from 0.41 to 15.1 grams. […] The 50% paw withdrawal threshold is determined using the method of Dixon, W. J., Ann. […] The post-drug threshold is compared to the pre-drug threshold and the percent reversal of tactile sensitivity is calculated based on a normal threshold of 15.1 grams.

male ddC treated rats = experiment: Dideoxycytidine (ddC) model of neuropathic pain, allodynia by von Frey hairs; type: in vivo, rat; details: for % Allodynia Reversal: 15 min post dose / % Allodynia Reversal: 30 min post dose / % Allodynia Reversal: 60 min post dose / % Allodynia Reversal: 120 min post dose: mean ± SEM
Protocol: The ddC Model in the rat is a relatively new model of neuropathic pain discovered from clinical treatment of the AIDS virus. […] The experimental animal model in the rat for neuropathic pain by ddC injection manifests symptoms of human patients with causalgia. It is considered predictive of clinical activity against neuropathic pain (Joseph et al, 2004). Compound N-(2,3-dichlorobenzyl)-4,5-dihydro-1H-imidazol-2-amine was tested in this ddC model of allodynic pain. The compound was administered intraperitoneally to male ddC treated rats.
The animals are injected intraperitoneally (IP) with 25 mg/kg dideoxycytidine (ddC) using a sterile 30 gauge needle. Approximately 3 weeks after the ddC injection a painful neuropathy develops causing sensitivity to light touch on the animals' extremities. This neuropathy can last for 2-3 months. The animals show no spontaneous pain, only a heightened response to mechanical stimuli (von Frey hair stimulation). The allodynia is quantitated in the animals receiving ddC injections by stimulation with a series of 8 Von Frey hairs on the mid planter area of the hind paws in the up-down manner described by Dixon (Dixon, 1980).
Male Sprague-Dawley rats (Charles River, Wilmington, Mass.) weighing approximately 150-300 grams were used for these studies. All experimental animals received N-(2,3-dichlorobenzyl)-4,5-dihydro-1H-imidazol-2-amine or vehicle in a single acute IP dose. In all studies, baseline measurements were taken prior to drug administration and then at 15, 30, 60 and 120 minutes post acute IP dosing (vehicle or N-(2,3-dichlorobenzyl)-4,5-dihydro-1H-imidazol-2-amine). The % allodynia reversal is calculated as: [(Postdrug threshold—Predrug threshold)/(15-Predrug threshold)]×100.
N-(2,3-dichlorobenzyl)-4,5-dihydro-1H-imidazol-2-amine was dissolved in 42% DMSO (dimethyl sulfoxide; Sigma, St. Louis, Mo.) at a concentration of 3 mg/ml. This stock solution was kept frozen at −20° C., was thawed on the day of the study and diluted in dd-H2O to concentrations ranging from 0.01-0.1 mg/ml for IP dosing (dosing volume=1 ml/kg). The vehicle is dd-H2O for these studies.
Data were compiled and analyzed using Microsoft Excel and/or Kaleidagraph. Data are expressed as mean± standard error of the mean. Comparisons between drug treated and vehicle groups were made using a two-tailed, 2-sample, unpaired t-test. Comparisons between baselines (pre-drug) and post-drug time points were made using a two-tailed, 2-sample, paired t-test.

For `Clc1cccc(CNC2=NCCN2)c1Cl` [N-(2,3-dichlorobenzyl)-4,5-dihydro-1H-imidazol-2-amine], which “Time of decrease of allodynia reversal to baseline” value (Chung model rats) is on record?
The value was “about 120 minutes”.

What about the “Time of peak percent allodynia reversal” value (Chung model rats) of the same molecule?
The value was 30 min.

And the “% Allodynia Reversal: 15 min post dose” value (male ddC treated rats; 0.01 mg/kg IP, n = 6)?
Its value is 1.8 ± 1.6%.

What about the “% Allodynia Reversal: 30 min post dose” value (male ddC treated rats; 0.01 mg/kg IP, n = 6) of the same molecule?
The value was 3.0 ± 1.7%.

And the “% Allodynia Reversal: 60 min post dose” value (male ddC treated rats; 0.01 mg/kg IP, n = 6)?
The value was 1.5 ± 2.0%.

What about the “% Allodynia Reversal: 120 min post dose” value (male ddC treated rats; 0.01 mg/kg IP, n = 6) of the same molecule?
The value was 0.1 ± 1.3%.

What about the “% Allodynia Reversal: 15 min post dose” value (male ddC treated rats; 0.03 mg/kg IP, n = 6) of the same molecule?
The value was 34 ± 3.9 %.

What about the “% Allodynia Reversal: 30 min post dose” value (male ddC treated rats; 0.03 mg/kg IP, n = 6) of the same molecule?
The value was 67%.

What about the “% Allodynia Reversal: 60 min post dose” value (male ddC treated rats; 0.03 mg/kg IP, n = 6) of the same molecule?
The value was 20 ± 3.7 %.

What about the “% Allodynia Reversal: 120 min post dose” value (male ddC treated rats; 0.03 mg/kg IP, n = 6) of the same molecule?
The value was 2.0 ± 2.6%.

And the “% Allodynia Reversal: 30 min post dose” value (male ddC treated rats; 0.03 mg/kg IP, n = 6, listed as 200762)?
Its value is 67 ± 9.0 %.

And the “% Allodynia Reversal: 15 min post dose” value (male ddC treated rats; 0.1 mg/kg IP, n = 6)?
Its value is 58 ± 9.1 %.

And the “% Allodynia Reversal: 30 min post dose” value (male ddC treated rats; 0.1 mg/kg IP, n = 6)?
Its value is 86%.

What about the “% Allodynia Reversal: 60 min post dose” value (male ddC treated rats; 0.1 mg/kg IP, n = 6) of the same molecule?
The value was 34 ± 2.5 %.

What about the “% Allodynia Reversal: 120 min post dose” value (male ddC treated rats; 0.1 mg/kg IP, n = 6) of the same molecule?
The value was 0.9 ± 1.2%.

What about the “% Allodynia Reversal: 30 min post dose” value (male ddC treated rats; 0.1 mg/kg IP, n = 6, listed as 200762) of the same molecule?
The value was 86 ± 6.3 %.

What about the “Minimal statistically significant efficacious dose” value (male ddC treated rats; IP, male rats) of the same molecule?
The value was 0.03 mg/kg.

And the No-effect dose (male ddC treated rats; IP, male rats)?
Its No-effect dose is 0.01 mg/kg.
